From PubChem BioAssay AID588841 (The Scripps Research Institute Molecular Screening Center, 2011)
Activity calls are given as the source filed them.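 The calls were made as follows: active = EC50 at or below 10 µM; inactive = the rest.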

Target: cAMP-dependent protein kinase type II-beta regulatory subunit (Homo sapiens) + cAMP-dependent protein kinase catalytic subunit beta (Mus musculus) (UniProt P31323+P68181)
Assay: PKA-R2B holoenzyme activators, late-stage follow-up, biochemical, fluorescence polarization, powder samples (AID 588841)
Conditions: PKA-R2B holoenzyme dissociation, Cy5-IP20 fluorescence polarization

EC50, inactive:
Cc1csc(C(=O)O)c1NC(=O)c1ccc(F)cc1 > 100 µM, CC(C)(C)c1ccc(COc2ccsc2C(=O)O)cc1 > 100 µM, O=C(O)c1sccc1SCc1ccc(Cl)cc1Cl > 100 µM, O=C(O)c1sccc1SCc1ccc(Cl)c(Cl)c1 > 100 µM, COC(=O)c1sc2ncccc2c1OCc1ccc(Cl)cc1Cl > 100 µM, O=C(O)c1sc2ncccc2c1OCc1ccccc1 > 100 µM, Cc1ccc(COc2ccsc2C(=O)O)cc1 > 100 µM, O=C(O)c1sccc1NC(=O)c1c(Cl)cccc1Cl > 100 µM, COC(=O)c1sc2ncccc2c1OCc1ccccc1Cl > 100 µM
